Test [1] relates to SK-MEL-5 (Melanoma). The test can be described thus: NCI human tumor cell line growth inhibition, SK-MEL-5. In kind it is cell-based. The note with it: for GI-50 / LC-50 / TGI: Melanoma SK-MEL-5, 48 hours. On the procedure:
(§1) The only difference is historical usage.
(§2) Percent Growths are calculated for each dose.
(§3) This is the "baseline count", or "Tzero reading".

In test [2] the test system is NCI-H460 (Lung-NSC). The test can be described thus: NCI human tumor cell line growth inhibition, NCI-H460. The note with it: Lung-NSC NCI-H460, 48 hours. In kind it is cell-based. On the procedure:
as §1, §2, §3

Test [3] concerns OVCAR-3 (Ovarian). The test is described as follows: NCI human tumor cell line growth inhibition, OVCAR-3. In kind it is cell-based. The note with it: Ovarian OVCAR-3, 48 hours. On the procedure: as §1, §2, §3
Test [4] has as its system KM20L2 (Colon). The test can be described thus: NCI human tumor cell line growth inhibition, KM20L2. The note with it: Colon KM20L2, 48 hours. In kind it is cell-based. How it is done:
as §1, §2, §3

Test [5] has as its system SF-295 (CNS). The test is described as follows: NCI human tumor cell line growth inhibition, SF-295. Format: cell-based. The note with it: CNS SF-295, 48 hours. How it is done:
as §1, §2, §3

Test [6] has as its system A498 (Renal). The note with it: Renal A498, 48 hours.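 Further: NCI protocol, compound given at five doses from 0.01 to 100 µg/ml, percent growth versus untreated controls relative to cell count at time zero, regression on log dose.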
Excerpt: The following measures are used to express drug activity by giving the drug dose which reduces cell growth to a specified percentage of growth:
There is no mathematical difference between ED50 and GI50, which are both calculated using the same formula. The only difference is historical usage.
TGI, (Total Growth Inhibition), is the drug dose needed to yield zero percent growth, i.e., just as many cells at the end of the experiment as were present in the beginning. Whether just as many cells were killed as were produced (steady state), or no growth occurred (total inhibition), cannot be distinguished.
Each drug is tested at five (5) doses: 100-10-1-0.1-0.01 μg/ml. Percent Growths are calculated for each dose. […] The log of the dose is used during the regression computation.
At the start of an experiment, cells from the in vitro cell cultures are inoculated into the appropriate tubes or microtiter plates. One set of control tubes/plates is immediately counted to determine the number of cells at the start of the experiment. This is the "baseline count", or "Tzero reading". At the end of the experiment (48 hours later) a second set of control tubes/plates is analyzed to determine the "Control Growth" value. The growth (or death) of cells relative to the initial quantity of cells is used to define the "Percent of Growth".
The test system of test [7] is PS-388 (Mouse Leukemia). The test can be described thus: P-388 mouse leukemia cell growth inhibition. The following applies: Mouse Leukemia PS-388. Format: cell-based. On the procedure:
as §1, §2, §3

In general, TGI refers to the concentration giving total growth inhibition. A low value points to greater sensitivity of the cells.

With “L-Dolavalyl-L-Valyl-N-Methyl-(S,S,R)-Dolaisoleuinyl-(S,R,R)-Dolaproinyl-L- Valine N-3-Quinoline Amide [9r]”, the GI-50 in test [1] stood at 0.0000057 µg/mL; in test [2], 0.000026 µg/mL; in test [3], 0.000019 µg/mL; in test [4], 0.000031 µg/mL; in test [5], 0.000027 µg/mL; in test [6] it was 0.000051 µg/mL. Further, the LC-50 in test [1], in test [2], in test [3], in test [4], in test [5] and in test [6] was over 0.0001 µg/mL each time. Also, the TGI in test [1] was over 0.1 ng/mL; in test [2] it was over 0.1 ng/mL; in test [3], 0.069 ng/mL; in test [4], over 0.1 ng/mL; in test [5], over 0.1 ng/mL; in test [6], over 0.1 ng/mL. The ED-50 in test [7] is 0.0041 µg/mL.

As to “L-Dolavalyl-L-Valyl-N-Methyl-(S,S,R)-Dolaisoleuinyl-(S,R,R)-Dolaproinyl-L- Phenylalanine N-3-Chlorophenyl Amide [9d]”, the GI-50 in test [1] was under 1e-12 µg/mL; in test [2], 0.0000094 µg/mL; in test [3], 0.000018 µg/mL; in test [4] it was 0.000007 µg/mL; in test [5], 0.000041 µg/mL; in test [6] it was 0.00012 µg/mL. The LC-50 in test [1], in test [2], in test [3], in test [4], in test [5] and in test [6] was over 0.01 µg/mL in each case. Further, the concentration for total growth inhibition (TGI) in test [1] was 5.1 ng/mL; in test [2] it was 0.11 ng/mL; in test [3], 0.16 ng/mL; in test [4], 0.19 ng/mL; in test [5], over 1 ng/mL; in test [6], over 1 ng/mL. For the same substance, the “human tumor inhibiting activity” value in test [1] (Melanoma SK-MEL-5 cell line, statement in words) is “unprecedented and extraordinary human tumor inhibiting activity”. Further, the ED-50 in test [7] came to 0.00258 µg/mL.

On to “L-Dolavalyl-L-Valyl-N-Methyl-(S,S,R)-Dolaisoleuinyl-(S,R,R)-Dolaproinyl-L- Phenylalanine N-4-Chlorophenyl Amide [9f]”, for which the GI-50 in test [1] was 0.0000002 µg/mL; in test [2], 0.0000018 µg/mL; in test [3], 0.0000014 µg/mL; in test [4], 0.0000029 µg/mL; in test [5] it was 0.0000025 µg/mL; in test [6] it was 0.000007 µg/mL. The LC-50 in test [1], in test [2], in test [3], in test [4], in test [5] and in test [6] was over 0.0001 µg/mL in each case. Besides, the concentration for total growth inhibition (TGI) in test [1] was 0.047 ng/mL; in test [2], 0.01 ng/mL; in test [3], 0.0056 ng/mL; in test [4], 0.0084 ng/mL; in test [5], over 0.1 ng/mL; in test [6], over 0.1 ng/mL. In test [7], the ED-50 amounted to 0.0000452 µg/mL.

For the substance “L-Dolavalyl-L-Valyl-N-Methyl-(S,S,R)-Dolaisoleuinyl-(S,R,R)-Dolaproinyl-L- Methionine N-2-Chlorophenyl Amide [9b]”, the GI-50 in test [1] was 0.00002 µg/mL; in test [2], 0.000031 µg/mL; in test [3] it was 0.000028 µg/mL; in test [4] it was 0.000034 µg/mL; in test [5], 0.000036 µg/mL; in test [6] it was 0.000073 µg/mL. Besides, the LC-50 in test [1], in test [2], in test [3], in test [4], in test [5] and in test [6] was over 0.001 µg/mL each time. Further, the concentration for total growth inhibition (TGI) in test [1] was over 1 ng/mL; in test [2], 0.11 ng/mL; in test [3], 0.091 ng/mL; in test [4] it was 0.18 ng/mL; in test [5], over 1 ng/mL; in test [6], over 1 ng/mL. The substance also came in with an ED-50 in test [7] of 0.000211 µg/mL.

With “L-Dolavalyl-L-Valyl-N-Methyl-(S,S,R)-Dolaisoleuinyl-(S,R,R)-Dolaproinyl-L- Proline N-3-Quinoline Amide [9q]”, the GI-50 in test [1] is 0.00011 µg/mL; in test [2] it was 0.0003 µg/mL; in test [3], 0.000086 µg/mL; in test [4], 0.00033 µg/mL; in test [5], 0.00036 µg/mL; in test [6] it was 0.00041 µg/mL. The LC-50 in test [1], in test [2], in test [3], in test [4], in test [5] and in test [6] was over 0.0001 µg/mL in each case. Also, the TGI in test [1], in test [2], in test [3], in test [4], in test [5] and in test [6] was over 0.1 ng/mL in each case. This substance displayed an ED-50 in test [7] of 0.000415 µg/mL.

For “L-Dolavalyl-L-Valyl-N-Methyl-(S,S,R)-Dolaisoleuinyl-(S,R,R)-Dolaproinyl-L- Methionine N-3-Chlorophenyl Amide [9c]”, the GI-50 was determined as 0.0000013 µg/mL in test [1]; 0.000025 µg/mL in test [2]; 0.000011 µg/mL in test [3]; 0.000023 µg/mL in test [4]; 0.000031 µg/mL in test [5]; 0.000084 µg/mL in test [6]. Also, the LC-50 in test [1], in test [2], in test [3], in test [4], in test [5] and in test [6] was over 0.001 µg/mL each time. In addition, the TGI in test [1] was 0.26 ng/mL; in test [2], 0.11 ng/mL; in test [3], 0.1 ng/mL; in test [4], 0.1 ng/mL; in test [5] it was over 1 ng/mL; in test [6], over 1 ng/mL. Besides, the ED-50 in test [7] came out at 0.00000264 µg/mL.

The values above are taken from patent US5663149A, “Human cancer inhibitory pentapeptide heterocyclic and halophenyl amides” (priority 1994, dated 1997).
